Like-named read-outs stand apart in the source and are kept apart here.
Tests used:
plasma active GLP-1 = tested on: plasma active GLP-1; parameters: method as in PMID 34965609; details: healthy subjects, cited from earlier work
DPP-4 activity = details: healthy subjects; once-daily oral dose of ≧50 mg, multiple doses; cited from earlier work
serum DPP-4 activity = tested on: serum DPP-4 activity; parameters: method as in PMID 22686547; details: Zucker Diabetic Fatty rats; preclinical studies (data not published); cited from earlier work
plasma DPP-4 activity = target: T1, plasma DPP-4 activity (Homo sapiens, UniProt P27487); experiment: Plasma DPP-4 inhibition relative to baseline (fluorescent method, Gly-Pro-7-amide-4-methylcoumarin); format: in vivo; details: patients with T2DM; for DPP-4 inhibition TRmax,ss / DPP-4 inhibition TRmax: median (range)
T1 construct: from tissue; host or cells: human plasma (K2-EDTA blood from T2DM patients)
T1 sequence (P27487 39-766 limits assumed): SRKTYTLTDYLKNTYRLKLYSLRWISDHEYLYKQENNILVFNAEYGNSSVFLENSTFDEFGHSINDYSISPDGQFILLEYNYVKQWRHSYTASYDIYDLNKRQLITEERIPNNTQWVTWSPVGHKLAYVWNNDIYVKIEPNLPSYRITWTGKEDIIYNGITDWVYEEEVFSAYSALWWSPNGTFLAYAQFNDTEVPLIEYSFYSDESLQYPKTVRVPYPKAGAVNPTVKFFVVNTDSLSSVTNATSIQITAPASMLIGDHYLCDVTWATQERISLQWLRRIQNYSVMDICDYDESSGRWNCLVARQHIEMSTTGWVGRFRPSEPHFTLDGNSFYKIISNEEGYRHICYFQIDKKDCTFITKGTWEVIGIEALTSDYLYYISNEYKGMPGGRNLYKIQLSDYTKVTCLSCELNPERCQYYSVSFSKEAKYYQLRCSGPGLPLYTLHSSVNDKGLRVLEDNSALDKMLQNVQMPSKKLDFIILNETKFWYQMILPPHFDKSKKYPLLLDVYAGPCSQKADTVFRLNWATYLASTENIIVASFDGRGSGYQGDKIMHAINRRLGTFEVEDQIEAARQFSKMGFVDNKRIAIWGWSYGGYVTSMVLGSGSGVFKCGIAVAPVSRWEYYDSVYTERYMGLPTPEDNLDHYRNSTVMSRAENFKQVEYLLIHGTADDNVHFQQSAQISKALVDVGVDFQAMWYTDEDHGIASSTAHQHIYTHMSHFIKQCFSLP
Description: Blood samples for DPP-4 activity determination were collected at the same time points as for PK. 1 mL blood samples were collected into blood-collecting tubes containing K2-EDTA. The tubes were placed on ice until centrifugation. The blood samples were centrifuged at 2-8°C, 1500 g for 10 min within 1 hour after blood collection. After centrifugation, the supernatant were evenly divided into two aliquots and stored at -80 ± 10°C. The plasma DPP-4 activity was determined using a fluorescent method with the substrate Gly-Pro-7-amide-4-methylcoumarin. A range of 3-400 µM was covered by the linear calibration.
The degree of inhibition of DPP-4 enzyme activity relative to baseline (DPP-4 inhibition, %) after administration was calculated as the following equation:
DPP−4 inhibition (%)=(1−DPP−4 activity/DPP−4 activity,Baseline)×100

[1] = Preliminary efficacy evaluation (FPG, 2 h PPG, HbA1c, GA); format: in vivo, human; details: patients with T2DM
Description: Blood samples for determination of fasting plasma glucose (FPG) and 2 hour postprandial plasma glucose (2 h PPG) were collected on day -2, day 7 and day 14. Additionally, blood samples for determination of glycated Hemoglobin A1C (HbA1c) and glycated Albumin (GA) were collected on day -2 and day 14. The changes of the above indexes relative to pre-treatment baseline (day -2) were evaluated and compared to investigate the preliminary efficacy of investigational product.

DPP-4 = target: T2, DPP-4 (Homo sapiens, UniProt P27487); experiment: Population PK/PD model (Sigmoid-Emax, DPP-4 inhibition); format: in vivo
T2 construct: from tissue; host or cells: human plasma (K2-EDTA blood from T2DM patients)
T2 sequence (P27487 39-766 limits assumed): as above
Description: As a result of data with an absolute value of CWRES greater than 5 being excluded, only 554 blood concentrations of cetagliptin were included in development of the PopPK/PD model. A direct-effect model was used to build the PK/PD model; and the model formula was as follows:
DPP−4 inhibition (%)=Emax*C^γ/(EC50γ+C^γ)

[2] = parameters: method as in PMID 34655432; details: healthy subjects; single oral doses of 12.5 to 400 mg; cited from earlier work
[3] = in vivo
Description: A population PK/PD (PopPK/PD) model was developed to describe the relationship between cetagliptin and DPP-4 inhibition. A sequential two-step analysis approach to modeling building was implemented. First, a population PK model was developed, and then parameters were fixed to establish the PopPK/PD model. The nonlinear mixed effect modeling method was used to establish the PopPK/PD model. Model selection criteria were based on goodness-of-fit plots, objective function value (OFV, equal to −2 log-likelihood), Akaike information criteria (AIC), and precision of parameter estimates.
A total of 560 plasma concentrations of cetagliptin from 32 patients with T2DM were used for PopPK analysis. The structural model was tested using either one- or two-compartment PK models. […]
The additive error model (Equation 2), proportional error model (Equation 3), and additive and proportional error model (Equation 4) were evaluated to describe the residual variability: […]
Goodness-of-fit plots were assessed to describe the adequacy of the final PopPK/PD model, including observations vs. population predictions, observations vs. individual predictions, conditional weighted residuals (CWRES) vs. population predictions, and CWRES vs. time., A bootstrap resampling procedure was performed to assess the stability of the final PopPK/PD model. […]

[4] = final model estimate, patients with T2DM

accumulation ratio of AUEC0-24h of DPP-4 inhibition (plasma DPP-4 activity; 50 mg once daily): ~1
DPP-4 inhibition AUEC0-24h (plasma DPP-4 activity; 50 mg oral once daily, day 14): 2010 ± 54.1 h*%
DPP-4 inhibition Rmax,ss (plasma DPP-4 activity; 50 mg oral once daily, day 14): 89.47 ± 1.12%
DPP-4 inhibition Rmin,ss (plasma DPP-4 activity; 50 mg oral once daily, day 14): 77.24 ± 4.52%
DUR80% (duration for DPP-4 inhibition rate of >80%) (plasma DPP-4 activity; 50 mg oral once daily, day 14): 21.9 ± 7.05 h
E24h (DPP-4 inhibition at 24 h postdose) (plasma DPP-4 activity; 50 mg oral once daily, day 14): 78.43 ± 3.85%
DUR80% (duration for DPP-4 inhibition rate of >80%) (plasma DPP-4 activity; 50 mg oral once daily, day 14, listed as cetagliptin): 21.9 h
DPP-4 inhibition TRmax,ss (plasma DPP-4 activity; 50 mg oral once daily, day 14): 2.00 (0.500-6.00) h
DPP-4 inhibition AUEC0-24h (plasma DPP-4 activity; 50 mg oral, day 1): 1820 ± 77.9 h*%
DPP-4 inhibition Rmax (plasma DPP-4 activity; 50 mg oral, day 1): 86.39 ± 1.75%
DUR80% (duration for DPP-4 inhibition rate of >80%) (plasma DPP-4 activity; 50 mg oral, day 1): 8.39 ± 2.37 h
E24h (DPP-4 inhibition at 24 h postdose) (plasma DPP-4 activity; 50 mg oral, day 1): 68.75 ± 4.75%
DUR80% (duration for DPP-4 inhibition rate of >80%) (plasma DPP-4 activity; 50 mg oral, day 1, listed as cetagliptin): 8.39 h
DPP-4 inhibition TRmax (plasma DPP-4 activity; 50 mg oral, day 1): 2.00 (0.500-3.00) h
sustained DPP-4 inhibition (≥80%) compared with sitagliptin (plasma DPP-4 activity; 100 mg cetagliptin vs 100 mg sitagliptin, multiple administration): much longer
accumulation ratio of AUEC0-24h of DPP-4 inhibition (plasma DPP-4 activity; 100 mg once daily): ~1
DPP-4 inhibition AUEC0-24h (plasma DPP-4 activity; 100 mg oral once daily, day 14): 2090 ± 24.4 h*%
DPP-4 inhibition Rmax,ss (plasma DPP-4 activity; 100 mg oral once daily, day 14): 89.99 ± 0.91%
DPP-4 inhibition Rmin,ss (plasma DPP-4 activity; 100 mg oral once daily, day 14): 84.28 ± 1.61%
DUR80% (duration for DPP-4 inhibition rate of >80%) (plasma DPP-4 activity; 100 mg oral once daily, day 14): 32.3 ± 4.53 h
E24h (DPP-4 inhibition at 24 h postdose) (plasma DPP-4 activity; 100 mg oral once daily, day 14): 83.91 ± 1.39%
DUR80% (duration for DPP-4 inhibition rate of >80%) (plasma DPP-4 activity; 100 mg oral once daily, day 14, listed as cetagliptin): 32.3 h
DPP-4 inhibition TRmax,ss (plasma DPP-4 activity; 100 mg oral once daily, day 14): 2.00 (1.00-3.00) h
DPP-4 inhibition AUEC0-24h (plasma DPP-4 activity; 100 mg oral, day 1): 2000 ± 41.6 h*%
DPP-4 inhibition Rmax (plasma DPP-4 activity; 100 mg oral, day 1): 88.78 ± 1.04%
DUR80% (duration for DPP-4 inhibition rate of >80%) (plasma DPP-4 activity; 100 mg oral, day 1): 21.1 ± 3.42 h
E24h (DPP-4 inhibition at 24 h postdose) (plasma DPP-4 activity; 100 mg oral, day 1): 79.75 ± 2.63%
DUR80% (duration for DPP-4 inhibition rate of >80%) (plasma DPP-4 activity; 100 mg oral, day 1, listed as cetagliptin): 21.1 h
DPP-4 inhibition TRmax (plasma DPP-4 activity; 100 mg oral, day 1): 1.00 (1.00-3.00) h
tvEC50 (typical value of concentration for 50% of maximal effect) (DPP-4; bootstrap median): 5.120
tvEmax (typical value of maximum pharmacodynamic effects) (DPP-4; bootstrap median): 91.78
tvGam (typical value of Hill coefficient) (DPP-4; bootstrap median): 1.008
tvEC50 (typical value of concentration for 50% of maximal effect) (DPP-4; [4]): 5.120
tvEmax (typical value of maximum pharmacodynamic effects) (DPP-4; [4]): 91.78
tvGam (typical value of Hill coefficient) (DPP-4; [4]): 1.008
tvCl2 (typical value of intercompartment clearance) [3]: 9.671 L/h
tvV (typical value of volume of central compartment distribution) [3]: 8.668 L
SMILES: C[C@@H]1c2cnc(C(F)(F)F)n2CCN1C(=O)C[C@H](N)Cc1cc(F)c(F)cc1F.O=P(O)(O)O [Cetagliptin, cetagliptin]
accumulation ratios of Rmax and AUEC0-24 h for plasma active GLP-1 (plasma active GLP-1; 50 mg): about 1.0
accumulation ratios of Rmax and AUEC0-24 h for plasma active GLP-1 (plasma active GLP-1; 100 mg): about 1.0
sustained DPP-4 inhibition (DPP-4 activity): ≥ 80%
inhibition of serum DPP-4 activity (serum DPP-4 activity): ≥ 80%
change of FPG relative to baseline (day -2) ([1]; 50 mg once daily, day 7): 0.49 mmol/L
mean change value of 2h postprandial blood glucose concentration compared with baseline ([1]; 50 mg once daily, day 7, 2 h after breakfast): -1.54 ± 2.25 mmol/L
mean change value of 2h postprandial blood glucose concentration compared with baseline ([1]; 50 mg once daily, day 7, 2 h after lunch): -0.29 ± 2.34 mmol/L
mean change value of 2h postprandial blood glucose concentration compared with baseline ([1]; 50 mg once daily, day 7, 2 h after supper): -1.30 ± 2.50 mmol/L
change of FPG relative to baseline (day -2) ([1]; 50 mg once daily, day 14): 0.56 mmol/L
change of GA relative to baseline (day -2) ([1]; 50 mg once daily, day 14): 0.53%
decrease of HbA1c compared with baseline ([1]; 50 mg once daily, day 14): 0.47%
mean change value of 2h postprandial blood glucose concentration compared with baseline ([1]; 50 mg once daily, day 14, 2 h after lunch): -0.66 ± 2.26 mmol/L
mean change value of 2h postprandial blood glucose concentration compared with baseline ([1]; 50 mg once daily, day 14, 2 h after supper): -2.64 ± 2.07 mmol/L
decrease of 2 h PPG compared with baseline ([1]; 50 mg once daily, day 14 after dinner): 2.64 mmol/L
change of FPG relative to baseline (day -2) ([1]; 100 mg once daily, day 7): -0.11 mmol/L
mean change value of 2h postprandial blood glucose concentration compared with baseline ([1]; 100 mg once daily, day 7, 2 h after breakfast): -0.54 ± 2.47 mmol/L
mean change value of 2h postprandial blood glucose concentration compared with baseline ([1]; 100 mg once daily, day 7, 2 h after lunch): -0.61 ± 2.16 mmol/L
mean change value of 2h postprandial blood glucose concentration compared with baseline ([1]; 100 mg once daily, day 7, 2 h after supper): 1.64 ± 3.22 mmol/L
change of FPG relative to baseline (day -2) ([1]; 100 mg once daily, day 14): 0.43 mmol/L
change of GA relative to baseline (day -2) ([1]; 100 mg once daily, day 14): -1.70%
decrease of HbA1c compared with baseline ([1]; 100 mg once daily, day 14): 0.35%
mean change value of 2h postprandial blood glucose concentration compared with baseline ([1]; 100 mg once daily, day 14, 2 h after lunch): 1.16 ± 2.05 mmol/L
mean change value of 2h postprandial blood glucose concentration compared with baseline ([1]; 100 mg once daily, day 14, 2 h after supper): 2.56 ± 2.48 mmol/L
dose-limiting toxicity [2]: no dose-limiting toxicity observed

Source: publication PMC10961402, “Safety, tolerability, pharmacokinetics and pharmacokinetic-pharmacodynamic modeling of cetagliptin in patients with type 2 diabetes mellitus” (Frontiers in Endocrinology, 2024)
